System: skin
Assay: Affymetrix microarray of skin, DBP-4 hr and analogs vs. untreated; gene selection by log-2 fold change, Wilcoxon, Kendall tau (Tables 8, 9)
Type: in vivo, mouse
Conditions: for Wilcoxon: DBP-4 hr vs. untreated, selected by p-value; for Kendall: selected by Kendall tau, expression vs. output
[1] = gene 1500032L24Rik NM_026914_at
[2] = gene 2210016L21Rik NM_028211_at
[3] = gene 4931408A02Rik NM_027627_at
[4] = gene 4933407C03Rik NM_028941_at
[5] = gene 5730494N06Rik NM_027478_at

CCCCOC(=O)c1ccccc1C(=O)OCCCC [DBP, dibutylphthalate]
No: Wilcoxon [1] | Wilcoxon [2] | Wilcoxon [3] | Wilcoxon [4] | Wilcoxon [5] | Wilcoxon (gene Ankrd24 NM_027480_at) | Wilcoxon (gene Cby1 NM_028634_at) | Wilcoxon (gene Ccdc123 NM_028120_at) | Wilcoxon (gene Cdc42ep1 NM_027219_at) | Wilcoxon (gene Cdca4 NM_028023_at) | Wilcoxon (gene Cenpv NM_028448_at) | Wilcoxon (gene Chst14 NM_028117_at) | Wilcoxon (gene Cnot8 NM_026949_at) | Wilcoxon (gene Ebpl NM_026598_at) | Wilcoxon (gene Ict1 NM_026729_at) | Wilcoxon (gene Ift80 NM_026641_at) | Wilcoxon (gene Lrrfip2 NM_027742_at) | Wilcoxon (gene Med23 NM_027347_at) | Wilcoxon (gene Mlh1 NM_026810_at) | Wilcoxon (gene Mterfd3 NM_028832_at) | Wilcoxon (gene Rnf135 NM_028019_at) | Wilcoxon (gene Rnf157 NM_027258_at) | Wilcoxon (gene Rrp1b NM_028244_at) | Wilcoxon (gene Slc25a35 NM_028048_at) | Wilcoxon (gene Tmem55a NM_028264_at) | Wilcoxon (gene Tmem80 NM_027797_at) | Wilcoxon (gene Tmtc4 NM_028651_at) | Wilcoxon (gene Zfyve21 NM_026752_at)
Yes: Kendall [1] | Kendall [2] | Kendall [3] | Kendall [4] | Kendall [5] | Kendall (gene Ankrd24 NM_027480_at) | Kendall (gene Cby1 NM_028634_at) | Kendall (gene Ccdc123 NM_028120_at) | Kendall (gene Cdc42ep1 NM_027219_at) | Kendall (gene Cdca4 NM_028023_at) | Kendall (gene Cenpv NM_028448_at) | Kendall (gene Chst14 NM_028117_at) | Kendall (gene Cnot8 NM_026949_at) | Kendall (gene Ebpl NM_026598_at) | Kendall (gene Ict1 NM_026729_at) | Kendall (gene Ift80 NM_026641_at) | Kendall (gene Lrrfip2 NM_027742_at) | Kendall (gene Med23 NM_027347_at) | Kendall (gene Mlh1 NM_026810_at) | Kendall (gene Mterfd3 NM_028832_at) | Kendall (gene Rnf135 NM_028019_at) | Kendall (gene Rnf157 NM_027258_at) | Kendall (gene Rrp1b NM_028244_at) | Kendall (gene Slc25a35 NM_028048_at) | Kendall (gene Tmem55a NM_028264_at) | Kendall (gene Tmem80 NM_027797_at) | Kendall (gene Tmtc4 NM_028651_at) | Kendall (gene Zfyve21 NM_026752_at)
